Measurements taken from paper PMC4465922 (Nature chemical biology, 2015).

Target: T1, α2C-adrenergic receptor (α2C-AR) (Homo sapiens, UniProt P18825)
T1 sequence (P18825 1-462): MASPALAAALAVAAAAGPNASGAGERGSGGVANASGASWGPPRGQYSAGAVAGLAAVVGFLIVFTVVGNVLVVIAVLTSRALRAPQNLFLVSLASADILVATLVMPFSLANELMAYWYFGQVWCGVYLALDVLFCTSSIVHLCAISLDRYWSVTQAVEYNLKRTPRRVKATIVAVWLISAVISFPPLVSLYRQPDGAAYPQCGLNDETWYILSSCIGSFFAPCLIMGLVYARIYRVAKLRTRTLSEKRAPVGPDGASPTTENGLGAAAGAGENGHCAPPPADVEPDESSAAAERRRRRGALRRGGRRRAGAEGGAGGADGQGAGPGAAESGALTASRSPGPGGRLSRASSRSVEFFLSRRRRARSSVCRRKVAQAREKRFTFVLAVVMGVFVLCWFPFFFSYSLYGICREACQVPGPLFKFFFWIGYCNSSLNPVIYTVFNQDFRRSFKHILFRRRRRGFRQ
Assay: [3H]NE competition radioligand binding on HEK293T membranes
Type: cell-based

Which EC50 does the source give for `NC[C@H](O)c1ccc(O)c(O)c1` [NE, L-(–)-norepinephrine] here?
The EC50 was 1.2 ± 0.4 nM.
